# pEC50: −log10 of the molar value. Read-outs that look alike come from different tables or passages of the source.
# Tests used:
# CFTR [1] = conditions: cited from earlier work
# [2] = test system: purinergic receptors in the airway epithelium; conditions: in vitro; cited from earlier work
# sodium channels = conditions: aerosolized, initial results; cited from earlier work
# CFTR Cl^- channel [3] = target: T1, CFTR Cl^- channel (Homo sapiens, UniProt P13569)
# human CFTR = conditions: [α-32P]8-N3ATP 30 αM, PPi in mM, 60 s UV irradiation; relative to control without PPi
# Protocol: Photolabeling of membrane-associated CFTR was performed as previously described (Travis, S. M. et al. (1993) J. Biol. Chem. 268:15336-15339). […] Membranes were prepared by differential centrifugation and resuspended in 20 mM HEPES, pH 7.5, 50 mM NaCl, 3 mM MgSO4, with 2 μg/ml each of leupeptin, aprotinin, and pepstatin. Membrane-associated CFTR was phosphorylated prior to photolabeling by incubation with 100 nM PKA and 0.1 mM ATP in buffer containing 10 m MgCl2 and 50 mM 1,4-piperazine diethane sulfonic acid, pH 6.8 for 20 min at 30° C., then diluted in 12 volumes buffer containing 20 mM tris(hydroxymethyl)aminomethane, pH 7.5, 0.2 mM EGTA and 1 μM calyculin A. Membranes were collected by centrifugation and resuspended at a concentration of 2.5 mg protein/ml in the same buffer.
# Photolabeling was performed by preincubating membranes (50 μg membrane protein/sample) on ice with [α-^32 P]8-N3ATP (30 αM, 6-12 Ci/mmol) and PPi (in mM). After 60 s UV irradiation, CFTR was solubilized and immunoprecipitated as described (Travis, S. M. et al. (1993) J. Biol. Chem. 268:15336-15339) using antibodies raised against the R domain (M13-1, 0.3 μg/sample) and against the C terminus (M1-4, 10 μg/sample). Immunocomplexes were analyzed by SDS-PAGE and incorporation of [α-^32 P]8-N3ATP was quantitated with an AMBIS radioanalytic imaging system (AMBIS Systems, Inc., San Diego, Calif.).
# CFTR Cl^- channel [4] = target: T1, CFTR Cl^- channel; conditions: external addition of 5 mM PPi, n=4
# Protocol: To determine if inorganic pyrophosphate (PPi) would alter CFTR Cl^- channel activity, 5 mM PPi was added to an excised, inside-out membrane patch containing many CFTR channels which had been phosphorylated by PKA.
# CFTR [5] = conditions: artificial lipid bilayers; cited from earlier work
# CFTR-ΔF508 = conditions: 5 mM PPi, 75 nM PKA, 0.3 mM ATP
# [6] = target: endogenous CFTR in the apical membrane of T-84 intestinal epithelial monolayers (Homo sapiens, UniProt P13569)
# Sequence of endogenous CFTR in the apical membrane of T-84 intestinal epithelial monolayers (P13569 whole entry): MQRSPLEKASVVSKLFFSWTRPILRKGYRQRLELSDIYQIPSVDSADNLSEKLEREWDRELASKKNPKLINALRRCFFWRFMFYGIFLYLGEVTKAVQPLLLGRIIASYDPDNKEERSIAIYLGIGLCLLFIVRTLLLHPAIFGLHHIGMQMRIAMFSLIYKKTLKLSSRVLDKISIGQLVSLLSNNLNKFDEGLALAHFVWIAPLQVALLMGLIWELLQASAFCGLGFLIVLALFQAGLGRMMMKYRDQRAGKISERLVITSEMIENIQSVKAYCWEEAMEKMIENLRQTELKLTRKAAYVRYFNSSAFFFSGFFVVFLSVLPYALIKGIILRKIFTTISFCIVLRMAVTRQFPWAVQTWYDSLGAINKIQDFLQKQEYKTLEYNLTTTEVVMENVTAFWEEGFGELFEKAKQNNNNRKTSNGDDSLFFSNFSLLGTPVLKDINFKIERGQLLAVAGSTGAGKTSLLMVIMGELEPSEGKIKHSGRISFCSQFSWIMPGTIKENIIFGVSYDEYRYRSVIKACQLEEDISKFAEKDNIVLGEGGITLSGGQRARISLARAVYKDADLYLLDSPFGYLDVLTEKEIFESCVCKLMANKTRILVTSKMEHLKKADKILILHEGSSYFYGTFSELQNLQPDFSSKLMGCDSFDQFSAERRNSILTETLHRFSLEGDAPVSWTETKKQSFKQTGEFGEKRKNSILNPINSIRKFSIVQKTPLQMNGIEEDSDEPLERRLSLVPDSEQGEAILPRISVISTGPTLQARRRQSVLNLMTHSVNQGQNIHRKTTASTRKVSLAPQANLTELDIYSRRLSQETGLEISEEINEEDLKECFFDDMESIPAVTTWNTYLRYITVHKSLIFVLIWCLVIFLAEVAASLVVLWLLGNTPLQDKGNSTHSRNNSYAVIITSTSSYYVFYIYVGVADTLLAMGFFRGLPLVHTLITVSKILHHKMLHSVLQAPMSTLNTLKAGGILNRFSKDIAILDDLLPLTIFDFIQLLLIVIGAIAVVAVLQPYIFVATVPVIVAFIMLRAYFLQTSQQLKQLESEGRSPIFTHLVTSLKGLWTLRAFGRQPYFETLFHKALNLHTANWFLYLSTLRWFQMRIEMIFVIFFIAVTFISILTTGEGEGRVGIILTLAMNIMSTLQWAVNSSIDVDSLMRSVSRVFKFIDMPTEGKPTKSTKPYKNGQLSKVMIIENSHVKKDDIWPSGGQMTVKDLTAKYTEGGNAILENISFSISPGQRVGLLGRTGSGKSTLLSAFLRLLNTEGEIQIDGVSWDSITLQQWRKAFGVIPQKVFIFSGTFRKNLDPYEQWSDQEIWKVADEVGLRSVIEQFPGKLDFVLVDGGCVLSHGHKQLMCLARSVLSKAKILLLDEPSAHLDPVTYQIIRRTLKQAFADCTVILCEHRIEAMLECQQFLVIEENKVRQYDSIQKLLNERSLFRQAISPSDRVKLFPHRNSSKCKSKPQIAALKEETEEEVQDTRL
# wild-type CFTR = target: T2, wild-type CFTR (Homo sapiens, UniProt P13569); experiment: Single channel excised inside-out patch-clamp and burst analysis, wild-type CFTR; format: cell-based; conditions: for frequency of prolonged bursts compared with PPi / bursts of activity: PPi analogs at 5 mM; for bursts of activity: C127 cell patches with a single active channel
# T2 construct: excised inside-out patches with ATP and PKA
# T2 sequence (P13569 whole entry): as above
# CFTR channel = CFTR channel (Homo sapiens, UniProt P13569); conditions: 5 mM PPi
# Sequence of CFTR channel (P13569 whole entry): as above
# Protocol: Maximum likelihood analysis and kinetic modeling were performed as described (Winter, M. C. et al. (1994) Biophys. J. 66:1398-1403). Briefly, unfiltered single channel data were digitized on a microcomputer (Apple Macintosh, Apple Computer, Inc., Cupertine, Calif.) equipped with a multifunctional data acquisition board (NB-MIO-16) and LabVIEW 2 software (National Instruments, Austin, Tex.) at 5 kHz following filtering with an 8-pole Bessel filter (Frequency Devices Inc., Haverhill, Mass.) at a comer frequency of 1 kHz with subsequent digital filtering at 500 Hz. Previous work has shown that a linear three state model (C1 .rarw.→C2 .rarw.→O) best describes the kinetics of CFTR channel activity (Winter, M. C. et al. (1994) Biophys. J. 66:1398-1403). The Maple 5 symbolic algebra program (Waterloo Maple Software, Waterloo, Canada) was used to derive the open and closed time probability density functions for this model by solving the matrix equations in terms of the rate constants. The resulting equations were used in LabVIEW 2 to determine the set of rate constants which yielded the maximum likelihood for the open and closed times observed with different experimental interventions.
# It has been previously shown that the activity of single phosphorylated CFTR channels can be described by a linear three state model (Winter, M. C. et al. (1994) Biophys. J. 66:1398-1403), and this model has been used to describe how ATP, ADP, and inorganic phosphate alter the rate constants which describe transitions between states (Carson, M. R. et al., 1994 Biophys. J (In Press); Winter, M. C. et al., 1994 Biophys. J. 66:1398-1403). […] The rate constants (β1, β2, α1, and α2) describe the rate of transition between each state.
# [7] = cited from earlier work
# T1 sequence (P13569 whole entry): as above
compound,measurement,setting,value
Nc1ncnc2c1ncn2[C@@H]1O[C@H](COP(=O)(O)OP(=O)(O)NP(=O)(O)O)[C@@H](O)[C@H]1O [AMP-PNP],binding affinity relative to ATP,CFTR [1],one twentieth
O=c1ccn([C@@H]2O[C@H](COP(=O)(O)OP(=O)(O)OP(=O)(O)O)[C@@H](O)[C@H]2O)c(=O)[nH]1 [UTP],chloride secretion,[2],can stimulate chloride secretion
"Nc1ncnc2c1ncn2[C@@H]1O[C@H](COP(=O)(O)OP(=O)(O)OP(=O)(O)O)[C@@H](O)[C@H]1O [ATP, Adenosine 5'-triphosphate]",chloride secretion,[2],can stimulate chloride secretion
N=C(N)NC(=O)c1nc(Cl)c(N)nc1N [amiloride],"rate of disease progression, as measured by lung function tests",sodium channels,slight change in the rate of disease progression
same,safety,sodium channels,safe
"O=P([O-])([O-])OP(=O)([O-])[O-].[Na+].[Na+].[Na+].[Na+] [PPi, Sodium pyrophosphate]",Cl- current,"CFTR Cl^- channel [3]; 5 mM PPi in the presence of 0.3 mM ATP, channels phosphorylated by PKA, cytosolic side",reversible increase
same,Cl- current,CFTR Cl^- channel [3]; PPi in the absence of ATP,did not stimulate current
same,pEC50,"CFTR Cl^- channel [3]; read-out: apparent EC50 of stimulation of Cl- current, in the presence of ATP, PKA-phosphorylated channels",~3.30
same,8-N3 ATP labeling of CFTR,human CFTR,concentration-dependent increase
same,whole-cell currents,CFTR Cl^- channel [4],did not alter currents
same,duration of bursts,CFTR [5],prolonged the duration of bursts
same,Po,"CFTR-ΔF508; before: 0.07±0.01, n=3",0.21±0.022
same,average burst duration,"CFTR-ΔF508; before: 125±19 ms, n=3",1023 ± 330 ms
same,increase of Po,CFTR-ΔF508; n=3,three-fold
same,increase of average burst duration,CFTR-ΔF508; n=3,eight-fold
same,stimulation of ΔF508 activity,CFTR-ΔF508; n=5,three-fold
same,apical membrane Cl- current,"[6]; 1 or 5 mM PPi added to basolateral solution after cAMP, 1 mM ATP",further increase in current
same,apical membrane Cl- current,[6]; 1 or 5 mM PPi in the absence of cAMP,did not increase current above baseline levels
same,time for current to decrease to baseline levels after removal of cAMP,[6]; in the continued presence of PPi,≤ 3 min
same,duration of the long closed states between bursts of activity,"wild-type CFTR; 5 mM PPi, 0.3 mM ATP, 75 nM PKA",appeared to decrease the duration of the long closed states
same,open state probability (Po),"wild-type CFTR; 5 mM PPi, 0.3 mM ATP, 75 nM PKA, before: 0.39±0.021, n=8, p<0.001",0.81±0.03
same,mean burst duration,"wild-type CFTR; 5 mM PPi, 0.3 mM ATP, 75 nM PKA, before: 175±6 ms, n=8, p<0.001",1568 ± 219 ms
same,single channel current amplitude,"wild-type CFTR; after addition of 5 mM PPi, 0.3 mM ATP, 75 nM PKA, before: 0.90±0.05, n=8, p=0.812",0.91±0.02 pA
same,decrease of rate constant α2,"CFTR channel; 0.3 mM ATP, 75 nM PKA",37%
same,rate constant β1 (transition from long closed state C1 to bursting state),"CFTR channel; 0.3 mM ATP, 75 nM PKA",increased β1
same,rate constant β2,"CFTR channel; 0.3 mM ATP, 75 nM PKA",did not alter β2
same,rate constant α1 (rate of leaving the bursting mode),"CFTR channel; 0.3 mM ATP, 75 nM PKA, four single-channel patches",six-fold decrease
same,change in Po within a burst,"CFTR channel; n=4, not significantly different",< 5%
"O=P(O)(O)CP(=O)(O)O [PCP, Methylenediphosphonic acid]",maintenance of calcaemia after initial treatment,[7]; daily oral administration of 1600 mg,calcaemia can be maintained
same,efficacy in tumor-induced bone disease,[7]; one slow infusion of 600 mg,shown efficacy
same,frequency of prolonged bursts compared with PPi,"wild-type CFTR; 75 nM PKA, 0.3 mM ATP",less frequent
same,bursts of activity,"wild-type CFTR; 75 nM PKA, 0.3 mM ATP",prolonged bursts of activity
same,effects on Po and average burst duration (channel activity),wild-type CFTR; nonhydrolyzable PPi analogs,did not achieve statistical significance
"CC(O)(P(=O)(O)O)P(=O)(O)O [etidronate, 1-hydroxyethylidenebisphosphonic acid, reference compound]",efficacy in tumor-induced bone disease,[7]; 500 mg/day for 3 days,shown efficacy
same,frequency of prolonged bursts compared with PPi,"wild-type CFTR; 75 nM PKA, 0.3 mM ATP",less frequent
same,bursts of activity,"wild-type CFTR; 75 nM PKA, 0.3 mM ATP",prolonged bursts of activity
